Test results from paper PMC11428593 (Antibiotics, 2024).
“And” between values parts separate entries of the source, which are not always exact repeats. Identical values can stand only once. Like-named read-outs stand apart in the source and are kept apart here.

What was measured:
[1] = system: 3T3 mouse embryonic fibroblast cells; assay: MTT cytotoxicity assay; type: cell-based; details: 3T3 cells; for IC50: Mus musculus, NIH3T3, 24 h
Method: To gauge the potential for toxicity of the new alkyl pyridinol derivates, we tested their cytotoxicity by examining the metabolic activity of 3T3 mouse embryonic fibroblast cells using the tetrazolium dye 3-(4,5-dimethylthiazol-2-yl)-2,5-diphenyltetrazolium bromide (MTT), as has been done before. The dye is reduced by NAD(P)H-dependent cellular oxidoreductases, resulting in the formation of the insoluble formazan with its purple color, which can be quantified. 3T3 cells were treated with different concentrations of the alkyl pyridinol compounds for 24 h, and the absorbance of the MTT-treated cell culture supernatant was measured at 540 nm. Absorbances were plotted against concentrations of the compound added (Supplementary Figure S2), and IC50, the concentration of a drug required for 50% metabolic inhibition, was calculated for each compound. […] However, the concentrations at which these compounds compromise 3T3 mouse embryonic fibroblast cells are well above their reported MICs (Table 2).
3T3 cells (male mouse embryonic fibroblast Flp-In cells, Thermo Fisher, Waltham, MA, USA) were cultured in D-MEM (Corning, Corning, NY, USA) supplemented with 10% Fetal Clone III (Cytiva Hyclone, Bengaluru, India) and L-Glutamine (Alfa Aesar, Haverhill, MA, USA) at 37 °C and 5% CO2. To determine the compound’s toxicity, 3T3 cells were seeded at a density of 10,000 cells/well into 96-well plates (Fisherbrand, Waltham, MA, USA) and cultured as described above. After 16 h, the culture medium was extracted and replaced by supplemented D-MEM without phenol red (Corning, Glendale, AZ, USA) containing individual compounds in the indicated concentrations. Furthermore, 1% sodium dodecyl sulfate (SDS) and 2% dimethyl sulfoxide (DMSO), equivalent to the volume of the DMSO in the highest compound concentration, were used as the cell death and vehicle control, respectively. Moreover, 16 h after compound treatment, the culture medium was extracted again and replaced by fresh supplemented D-MEM without phenol red. Subsequently, 10 µL of 5 mg/mL MTT reagent (Alfa Aesar, Haverhill, MA, USA), dissolved in DMSO, was added to each well, and the cells were incubated for 2 h at 37 °C and 5% CO2. Next, 85 µL of the culture supernatant was removed from each well, mixed with 50 µL of DMSO, and incubated in an optical grade 96-well plate (Fisherbrand, Waltham, MA, USA) in a shaking incubator at 37 °C and 250 rpm. The absorbance of the MTT-treated cell culture supernatant was measured at 540 nm in an ELx808 plate reader (Biotek, Winooski, VT, USA).

[2] = system: S. aureus strain USA300LAC biofilm; assay: Inhibition of biofilm formation (crystal violet); type: cell-based, Staphylococcus aureus
Method: The establishment of a bacterial biofilm usually begins with pathogen attachment to biotic and abiotic surfaces, and S. aureus is notorious for its ability to form biofilms on surfaces, such as implants and catheters, which presents a unique treatment challenge.
Overnight cultures of S. aureus strain USA300LAC were diluted into fresh TSB to an OD600nm = 0.001 and incubated aerobically at 37 °C until the mid-log phase. (A) To detect effects on biofilm formation, cultures were diluted to an OD600nm = 0.0001 in the presence and absence of JC-01-074 and vancomycin at concentrations of 0.5–4× MIC, respectively. (B) To detect effects on biofilm eradication, cultures were diluted to an OD600nm = 0.0001 and incubated under static conditions for 24 h, after which planktonic cells were removed, and the preformed biofilms were washed twice with PBS. […] Biofilm mass was quantified after 20 h via crystal violet staining. One-way ANOVA, Dunnett’s multiple-comparison test (* p < 0.05, ** p < 0.01); (n = 3, ±S.D.).
The overnight USA300LAC cultures were diluted 1000-fold into the fresh TSB media and incubated under shaking conditions at 37 °C until the mid-log phase. The cultures were subsequently diluted to approximately 4 × 10^6 CFU/mL and dispended into 96-well polystyrene plates (Alkali Scientific, Fort Lauderdale, FL, USA) containing DMSO (control), vancomycin (0.5–4× MIC), or the indicated alkyl pyridinol compounds (0.5–4× MIC) and sealed with a breath-easy membrane (Fisherbrand, Waltham, MA, USA). The peripheral wells were filled with PBS to limit evaporation. The plates were incubated without agitation at 37 °C for 24 h, following which the planktonic cells were removed. The biofilms were washed twice with PBS, stained with 0.1% crystal violet (CV) for 15 min, and washed again twice with PBS to remove the unbound CV dye. CV bound to biofilm cells was extracted with 30% (v/v) glacial acetic acid, and the O.D.595nm was determined.

[3] = 24 hours, one value per biological replicate, read-out: IC50 of single biological replicates (Figure S2)
[4] = 24 h treatment, mean ± S.D., read-out: IC50

Structure (SMILES) | IC50 of single biological replicates (Figure S2) ([1]; 24 hours, one value per biological replicate, listed as JC-01-72) | IC50 [1, 3] [µg/mL] | IC50 [1, 4] [µM] | IC50 of single biological replicates (Figure S2) ([1]; 24 hours, one value per biological replicate, listed as JC-01-74) | reduction of biofilm formation ([2]; 0.5–4× MIC, dose-dependent) | inhibition of biofilm formation ([2]; up to 4× MIC, in words)
CCCCCCCCCC#Cc1cncc(O)c1 [JC-01-072] | 41.1 µg/ml and 27.6 µg/ml and 35 µg/ml | 47.1 | 153 ± 33.8 |  |  | 
CCCCCCCCCC#Cc1cccc(O)n1 [JC-01-074] |  | 22.9 | 104 ± 9.4 | 27.1 µg/ml and 26.7 µg/ml | 60–70% | very potent in inhibiting their formation
